SMILES strings stand for the structures.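 Five compound concentrations were applied to cells in 96-well plates for 48 hours; endpoints were derived by simple linear interpolation of the resulting dose-response curve. Here, GI50 denotes the concentration required for 50% inhibition of growth. At the TGI there is no net growth.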

Test systems include HOP-62 NSCLC; OVCAR-4 ovarian; PC-3 prostate; SK-MEL-5 melanoma; UACC-257 melanoma; A498 renal; UO-31 renal; KM12 colon; K-562 leukemia; SNB-75 CNS.
Assay in all cases: NCI anticancer screen, dose series, 48 h

`COC(=O)CCC(=O)c1ccc2c(c1)CC1(Cc3ccccc3C1)C2`: the TGI is greater than 100 µM in the test on HOP-62 NSCLC; greater than 100 µM in the test on OVCAR-4 ovarian; greater than 100 µM in the test with PC-3 prostate; 33.1 µM in the test on SK-MEL-5 melanoma; 84.2 µM with UACC-257 melanoma; greater than 100 µM in the test on A498 renal. Further, the TGI in the test with UO-31 renal is 80.3 µM; in the test with KM12 colon, greater than 100 µM.
As for `COc1ccc(-c2nc3ccccc3c(=O)[nH]2)cc1OC`, the TGI in the test with HOP-62 NSCLC, in the test with OVCAR-4 ovarian, in the test on PC-3 prostate, with SK-MEL-5 melanoma, in the test on UACC-257 melanoma and with UO-31 renal was greater than 100 µM each time. For the same compound, the TGI in the test on K-562 leukemia was greater than 100 µM; in the test with KM12 colon, greater than 100 µM; with SNB-75 CNS it was 55.6 µM.
As to `C/C(=N\Nc1nc2ccccc2[nH]1)c1ccc2ccccc2n1`, the TGI amounted to 8.12 µM in the test on HOP-62 NSCLC; 10.8 µM in the test on OVCAR-4 ovarian; 5.2 µM with PC-3 prostate; 4.5 µM in the test on SK-MEL-5 melanoma; 24.9 µM in the test with UACC-257 melanoma; 5.1 µM in the test with UO-31 renal. Moreover, the TGI with K-562 leukemia worked out at 6.72 µM; with KM12 colon it was 14.3 µM.
As to `c1ccc2c[n+](Cc3ccnc4ccccc34)ccc2c1`, the TGI in the test with HOP-62 NSCLC, in the test with OVCAR-4 ovarian, with PC-3 prostate, with SK-MEL-5 melanoma, with UACC-257 melanoma and in the test with A498 renal was greater than 100 µM in each case. Also, the TGI in the test with UO-31 renal, in the test on K-562 leukemia and in the test with KM12 colon was greater than 100 µM throughout.
For the compound `O=C(O)COc1cccc2ccccc(=O)c12`, the TGI in the test with HOP-62 NSCLC, with OVCAR-4 ovarian, in the test with PC-3 prostate, in the test with SK-MEL-5 melanoma, in the test with UACC-257 melanoma and with A498 renal was greater than 100 µM in each case. In addition, the TGI with UO-31 renal, in the test on K-562 leukemia and in the test on KM12 colon was greater than 100 µM in each case.
With `COc1cc(/C=C2\CCCC3=C2N=C2SC=NN2C3c2cc(OC)c(OC)c(OC)c2)cc(OC)c1OC` (stereo not drawn), the GI50 in the test with PC-3 prostate was 3.1 µM; in the test with UACC-257 melanoma, 2.64 µM; in the test with A498 renal, 1.48 µM; in the test with K-562 leukemia, 3.08 µM; in the test with SNB-75 CNS, 7.52 µM. Further, the TGI in the test on PC-3 prostate was greater than 100 µM; with UACC-257 melanoma, 26.1 µM; with A498 renal, 3.89 µM; with K-562 leukemia it was greater than 100 µM; in the test with SNB-75 CNS, greater than 100 µM.
As for `CCOC(=O)C(C(=O)OCC)C(=S)NC1OC(COC(C)=O)C(OC(C)=O)C(OC(C)=O)C1OC(C)=O` (stereo not drawn), the TGI with HOP-62 NSCLC, in the test on OVCAR-4 ovarian, in the test with SK-MEL-5 melanoma, in the test with UACC-257 melanoma, in the test on A498 renal and in the test with UO-31 renal was greater than 100 µM throughout. This compound also gave a TGI in the test on KM12 colon greater than 100 µM.
On to `C=C1[C@@H]2CCC(C)(C)[C@H]1CCC(=O)[C@@H]2C(=O)OC`, for which the TGI in the test on HOP-62 NSCLC, with OVCAR-4 ovarian, in the test with SK-MEL-5 melanoma, with UACC-257 melanoma, with A498 renal and with UO-31 renal was greater than 100 µM each time. In the test with K-562 leukemia, this compound yielded a TGI greater than 100 µM.
As to `O=c1[nH]nc(-c2ccccc2)c2[nH]c3c(c12)CCCc1ccccc1-3`, the TGI in the test with HOP-62 NSCLC worked out at 46.4 µM; with OVCAR-4 ovarian, 33.6 µM; in the test with PC-3 prostate, 58.5 µM; in the test on SK-MEL-5 melanoma it was 26.5 µM; in the test on UACC-257 melanoma it was 44.5 µM; in the test with UO-31 renal, 34.7 µM. In addition, the TGI worked out at 94.8 µM in the test with K-562 leukemia and 23.5 µM with KM12 colon.
For the compound `Cc1cccc(C)c1NC(=O)/C(CC(=O)CC(c1ccccc1)c1c(O)c2ccccc2oc1=O)=N/O` (stereo not drawn), the TGI in the test on HOP-62 NSCLC, with OVCAR-4 ovarian, with PC-3 prostate, in the test with SK-MEL-5 melanoma, in the test on UACC-257 melanoma and in the test on UO-31 renal was greater than 100 µM in each case. Further, the TGI with KM12 colon and with SNB-75 CNS was greater than 100 µM in each case.
`Cc1cc(NS(=O)(=O)c2ccc(N=Nc3c(Nc4ccccc4)nn(-c4ccc(S(=O)(=O)Nc5ccncn5)cc4)c3C)cc2)no1`: the TGI in the test with HOP-62 NSCLC, with OVCAR-4 ovarian, in the test on PC-3 prostate, in the test with SK-MEL-5 melanoma, in the test with UACC-257 melanoma and with UO-31 renal was greater than 100 µM each time. Moreover, the TGI in the test on K-562 leukemia, in the test with KM12 colon and in the test on SNB-75 CNS was greater than 100 µM throughout.
Take `CCOC(=O)C(/C=N/C(N)=S)=C(/O)c1ccccc1`: the TGI with HOP-62 NSCLC, in the test on OVCAR-4 ovarian, in the test on SK-MEL-5 melanoma, in the test with UACC-257 melanoma, in the test with A498 renal and in the test on UO-31 renal was greater than 100 µM in each case. Also, the TGI with KM12 colon and in the test with SNB-75 CNS was greater than 100 µM throughout.
Turning to `COc1cc(C2C(Cl)C(=O)N2NC(=O)c2ccccc2O)cc(OC)c1OC` (stereo not drawn), the TGI is greater than 10 µM in the test on OVCAR-4 ovarian; greater than 10 µM in the test with PC-3 prostate; greater than 10 µM in the test with SK-MEL-5 melanoma; 7.46 µM in the test with UACC-257 melanoma; greater than 10 µM in the test with UO-31 renal; greater than 10 µM in the test with K-562 leukemia. Besides, the TGI with KM12 colon and in the test on SNB-75 CNS was greater than 10 µM in each case.
Take `COc1ccc(OC/C(N=Cc2cccnc2)=N/NC(=O)c2ccncc2)cc1`: the TGI with HOP-62 NSCLC, in the test with OVCAR-4 ovarian, with PC-3 prostate, in the test on UACC-257 melanoma, with A498 renal and in the test with K-562 leukemia was greater than 100 µM each time. Moreover, the TGI with KM12 colon is greater than 100 µM; in the test on SNB-75 CNS, 85.2 µM.
As for `CSc1nnc2n1-c1ccccc1SCC2`, the TGI in the test with HOP-62 NSCLC, in the test with OVCAR-4 ovarian, in the test on UACC-257 melanoma, with A498 renal, in the test on UO-31 renal and in the test with K-562 leukemia was greater than 100 µM each time. The TGI in the test on KM12 colon and in the test on SNB-75 CNS was greater than 100 µM in each case.
`O=CN/C=C\c1cc(O)ccc1O`: the TGI with HOP-62 NSCLC is 60.2 µM; with OVCAR-4 ovarian, 26.8 µM; in the test on SK-MEL-5 melanoma, greater than 50.9 µM; with UACC-257 melanoma it was 19.2 µM; in the test with A498 renal, greater than 100 µM; in the test with UO-31 renal, 29.1 µM. The TGI in the test on K-562 leukemia, in the test on KM12 colon and in the test with SNB-75 CNS was greater than 100 µM in each case.

For the origin of these results see PubChem BioAssay (NCI).
